What was measured:
[1] = molecular target: T1, Bovine Serum Albumin (BSA) (Bos taurus, UniProt P02769); experiment: Inhibition of thermal aggregation of BSA, SEC HPLC; format: physicochemical; conditions: 65° C., BSA 1.75 mg/ml, excipient 11.25 mg/ml, pH 7.4
T1 construct: BSA stock solution (35%, in water, 0.85% sodium chloride, from Sigma); purchased Sigma / Sigma Aldrich
Procedure: A 0.050 ml of BSA stock solution (35%, in water, 0.85% sodium chloride, from Sigma) was diluted into 0.450 ml of sodium phosphate buffer (50 mM, pH 7.4, 0.85% sodium chloride) to give a BSA solution at concentration of 35 mg/ml. An excipient, 2-formylbenzenesulfonic acid, sodium salt (Aldrich, 75%), was made into a solution in water (HPLC grade) at concentration of 75 mg/ml, and its pH was adjusted to 8 using dilute hydrochloric acid.
An aliquot of 0.050 ml of the above stock BSA solution (35 mg/ml) was diluted into PBS buffer (pH 7.4, 0.80 ml), and 0.15 ml of the excipient solution was added to it to make a BSA concentration of 1.75 mg/ml, and the excipient of 11.25 mg/ml. A separate sample was prepared without the addition of the excipient. Both samples in capped glass tubes are incubated at 65° C. […] […] SEC column: TSK gel G3000 SW, 7.5×300 mm, Tosoh Biosciences, part number 05789. Mobile phase: 50 mM phosphate buffer, pH 7.4, 0.85% sodium chloride. Flow rate: 1.0 ml/min. Detection: 280 nm Instrument: BuckChrom BLC-20.

BSA [2] = molecular target: T2, BSA (Bos taurus, UniProt P02769); experiment: Reduction of aggregation of BSA induced by t-butanol, SEC HPLC; format: physicochemical, Bovine; conditions: BSA precipitated with t-butanol, re-dissolved in PBS
T2 construct: BSA stock solution (35%, in water, 0.85% sodium chloride, from Sigma); purchased Sigma / Sigma Aldrich
T2 sequence (P02769 25-607): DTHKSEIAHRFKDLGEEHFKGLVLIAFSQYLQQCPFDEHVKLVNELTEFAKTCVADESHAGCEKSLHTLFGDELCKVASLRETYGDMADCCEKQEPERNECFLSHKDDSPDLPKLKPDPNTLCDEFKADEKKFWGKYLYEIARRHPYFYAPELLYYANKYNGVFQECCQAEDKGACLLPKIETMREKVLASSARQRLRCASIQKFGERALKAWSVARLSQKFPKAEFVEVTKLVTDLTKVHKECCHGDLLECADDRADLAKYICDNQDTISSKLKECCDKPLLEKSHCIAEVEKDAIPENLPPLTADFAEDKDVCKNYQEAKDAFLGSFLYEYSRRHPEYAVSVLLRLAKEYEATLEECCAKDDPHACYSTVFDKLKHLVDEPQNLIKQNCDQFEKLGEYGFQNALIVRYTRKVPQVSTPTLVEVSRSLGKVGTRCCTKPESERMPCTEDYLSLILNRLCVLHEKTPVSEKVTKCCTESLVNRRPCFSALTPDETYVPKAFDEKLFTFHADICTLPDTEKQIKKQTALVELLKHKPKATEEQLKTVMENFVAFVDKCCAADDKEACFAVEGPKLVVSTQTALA
Procedure: To three separate test tubes containing 0.050 ml of BSA (35%, 0.85% sodium chloride) and 0.050 ml of phosphate buffer (50 mM, pH 7.4), were respectively added 0.010 ml of water, 0.010 mll of 2-formylbenzenesulfonic acid sodium salt (75 mg/ml, pH 8), and 0.010 ml of pyridoxal phosphate (100 mg/ml, pH 7.4). To each of the three tubes were then added 0.50 ml of PEG solution (75%, molecular weight 3400) followed by centrifugation to give some precipitate. The three supernatants were collected to have BSA at saturated concentrations, and to them were separately added 0.50 ml of t-butanol to have more BSA precipitates after centrifugation. The crops of precipitates from t-butanol were washed with t-butanol twice (0.75 ml each) and re-dissolved in PBS buffer (50 mM sodium phosphate, pH 7.4, 0.85% sodium chloride) for SEC HPLC analysis. Plain BSA produced about 75% of aggregates, the sample with 2-formylbenzenesulfonic acid produced about 60% of aggregates, the sample with pyridoxal phosphate produced less than 50% of aggregates.

[3] = molecular target: T3, Myoglobin (Horse Skeleton) (Equus caballus, UniProt P68082); experiment: Inhibition of myoglobin thermal aggregation at 65° C.; format: physicochemical
T3 construct: Myoglobin (Horse Skeleton, Sigma) was made into a stock solution (10 mg/ml); purchased Sigma; host or cells: horse skeletal muscle ('Horse Skeleton' [sic])
T3 sequence (P68082 whole entry): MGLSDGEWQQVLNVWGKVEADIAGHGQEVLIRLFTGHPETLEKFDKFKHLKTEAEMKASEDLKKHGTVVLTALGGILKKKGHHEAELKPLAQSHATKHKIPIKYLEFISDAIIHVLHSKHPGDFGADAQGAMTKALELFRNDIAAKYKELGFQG
Procedure: Myoglobin (Horse Skeleton, Sigma) was made into a stock solution (10 mg/ml) in sodium bicarbonate buffer (0.1 M, pH 9.0). This solution (0.5 ml) was then mixed with various excipient stock solutions (0.10 ml) to provide a series of test samples with the same final myoglobin concentration and varying excipient concentrations ([X]). Then the samples in sealed test tubes were inserted into wells of heating block that was pre-set at 65° C., and the incubation was continued over a period of time, to observe the formation of fibrillation precipitates (PPT).

BSA [4] = molecular target: T2, BSA; experiment: Inhibition of BSA thermal aggregation (gel/solid formation) at 65° C. over 60 min, phosphate buffer; format: physicochemical, Bovine
Procedure: […] All samples were inserted into wells of heating block that was preset at 65° C.
Ten microliter of the above clear solutions were each diluted with 1.0 ml of phosphate buffer (pH 7.4), and a reference sample of BSA solutions of 2.5 mg/ml was prepared in the same buffer. Small aliquot of 0.10 ml of all the five diluted samples were analyzed on SEC HPLC (TSK gel G 3000 SW, 5 mm×300 mm), eluted with 50 mM sodium phosphate buffer (pH 7.4) containing 0.85% sodium chloride at flow rate of 1.0 ml/min monitored at 280 nm.

BSA [5] = molecular target: T2, BSA; experiment: Screening of excipients at pH 6.2 for capacity to deter BSA from forming a gel; format: physicochemical, Bovine; conditions: for Results, 65° C., 60 minutes: BSA 175 mg/ml
Procedure: Various excipients were tested for their capacity to deter BSA from forming a gel, using sucrose as a reference, in malonic acid buffer (25 mM), incubated at 65° C. for 60 minutes. The excipients used were sucrose, 4-formylbenzene-1,3-disulfonic acid, 4-formylbenzoic acid, phenylglyoxylic acid, glyoxylic acid. (Tables 2 through 6).

[6] = molecular target: T4, zinc-free recombinant human insulin, NovoRapid, LisPro (Homo sapiens, UniProt P01308); experiment: Inhibition of insulin fibrillation by glyoxylic acid, rotator at room temperature; format: physicochemical; conditions: 20 mM glyoxylic acid, phosphate buffer pH 7.0, room temperature, rotator 12 rotations per minute
T4 construct: A solution of zinc-free recombinant human insulin was prepared in phosphate buffer
T4 sequence (P01308 25-54 limits assumed): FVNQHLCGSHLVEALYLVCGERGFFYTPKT
T4 sequence (P01308 90-110 limits assumed): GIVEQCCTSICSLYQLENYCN
Procedure: (§1) A solution of zinc-free recombinant human insulin was prepared in phosphate buffer (50 mM, pH 7.0, no sodium chloride) at concentration of 1.0 mg/ml, containing 0 and 20 mM glyoxylic acid. Commercial NovoRapid (Novo Nordisk, 100 IU/ml) was diluted with phosphate buffer to 25 IU/ml, with and without glyoxylic acid (0 or 20 mM). Humalog 25 (100 IU/ml, Eli Lilly) was centrifuged to collect the supernatant, and the LisPro concentration was assumed to be 25 IU/ml. Then two LisPro samples were made with and without glyoxylic acid (0 or 20 mM) with assumed final LisPro concentration of 20 IU/ml. Each of the samples (1.0 ml) was transferred into a capped 10 ml test tube, and loaded onto a rotator that was set at 12 rotations per minute at room temperature.

Humulin R (zinc insulin) = molecular target: T5, Humulin R (zinc insulin) (Homo sapiens, UniProt P01308); experiment: Inhibition of zinc insulin fibrillation by glyoxylic acid, rotator at room temperature; format: physicochemical; conditions: containing glyoxylic acid, conditions as in Example 11, rotator
T5 construct: purchased
T5 sequence (P01308 25-54 limits assumed): as the sequence (P01308 25-54 limits assumed) above
Procedure: as §1, with “temperature. […] Conditions were as in Example 11 above, but using commercial Humulin R (100 IU/ml).” for “temperature.”

[7] = pH 9.0, 5 weeks, one cell for all [X] of the excipient
[8] = pH 9.0, 1 days, one cell for all [X] of the excipient
[9] = pH 9.0, 2 days, one cell for all [X] of the excipient
[10] = pH 9.0, 4 days, one cell for all [X] of the excipient
[11] = malonate 25 mM pH 6.2, excipient 9.4 mg/ml
[12] = malonate 25 mM pH 6.2, excipient 18.8 mg/ml
[13] = malonate 25 mM pH 6.2, excipient 37.5 mg/ml

T1 sequence (P02769 25-607): as the sequence (P02769 25-607) above

O=Cc1ccccc1S(=O)(=O)[O-].[Na+] [2-formylbenzenesulfonic acid, 2-formylbenzenesulfonic acid, sodium salt] was tested, and the “BSA aggregation on SEC HPLC” value ([1]; 40 minutes) was “no significant change of BSA”, the “BSA aggregation on SEC HPLC” value ([1]; 60 minutes) was “aggregates started to show up in an insignificant amount” and the Aggregates produced (BSA [2]) was “about 60%”.

For O=Cc1cc(C(=O)O)ccc1O [3-Formyl-4-hydroxylbenzoic Acid], the “Formation of fibrillation precipitates (PPT)” value (“Formation” below) [3, 7] was “Precipitate”, the “Formation” value [3, 8] was “Precipitate” and the “Formation” value [3, 9] was “Precipitate”. For the same compound, the “Formation” value [3, 10] was “Precipitate”.

With O=Cc1ccc(S(=O)(=O)O)cc1S(=O)(=O)O [4-Formyl-1,3-benzenedisulfonic Acid, 4-Formyl-1,3-benzenedisulfonic acid] the “Results, 65° C., 60 minutes” value (BSA [4]; BSA 262.5 mg/ml, phosphate 25 mM pH 7.4, excipient 12.5 mg/ml) was “Clear”, the “Results, 65° C., 60 minutes” value (BSA [4]; BSA 262.5 mg/ml, phosphate 25 mM pH 7.4, excipient 12.5 mg/ml, listed as 4-Formyl-1,3-benzenedisulfonic acid) was “prevents BSA (262 mg/ml) from turning into gellified solid” and the “Results, 65° C., 60 minutes” value (BSA [4]; BSA 262.5 mg/ml, phosphate 25 mM pH 7.4, excipient 25 mg/ml) was “Clear”. For the same compound, the “Results, 65° C., 60 minutes” value (BSA [4]; BSA 262.5 mg/ml, phosphate 25 mM pH 7.4, excipient 50 mg/ml) was “Clear”, the “Results, 65° C., 60 minutes” value (BSA [4]; repeated at pH 6.8, excipient 12.5 mg/ml) was “remained as clear solution” and the “Results, 65° C., 60 minutes” value (BSA [5]; malonate 25 mM pH 6.2, excipient 7.1 mg/ml) was “Clear”. For the same compound, the “Results, 65° C., 60 minutes” value (BSA [5]; malonate 25 mM pH 6.2, excipient 14.4 mg/ml) was “Clear”, the “Results, 65° C., 60 minutes” value (BSA [5]; malonate 25 mM pH 6.2, excipient 28.8 mg/ml) was “Clear” and the “Rank in deterring myoglobin from fibrillation (summary in words)” value ([3]; pH 9.0) was “best among this group”. The “Formation” value [3, 7] was “Clear”, the “Formation” value [3, 8] was “Clear” and the “Formation” value [3, 9] was “Clear”. For the same compound, the “Formation” value [3, 10] was “Clear”.

O=Cc1ccc(C(=O)O)cc1 [4-Formylbenzoic acid] was tested, and the “Results, 65° C., 60 minutes” value (BSA [5]; [11]) was “Clear”, the “Results, 65° C., 60 minutes” value (BSA [5]; [12]) was “Clear” and the “Results, 65° C., 60 minutes” value (BSA [5]; [13]) was “Clear”.

In the case of O=CC(=O)O [Glyoxylic Acid], the “Results, 65° C., 60 minutes” value (BSA [5]; malonate 25 mM pH 6.2, excipient 5.8 mg/ml) is reported as “Clear”, the “Results, 65° C., 60 minutes” value (BSA [5]; malonate 25 mM pH 6.2, excipient 11.5 mg/ml) is reported as “Clear” and the “Results, 65° C., 60 minutes” value (BSA [5]; malonate 25 mM pH 6.2, excipient 23 mg/ml) is reported as “Clear”. For the same compound, the “Formation” value [3, 7] was “Precipitate”, the “Formation” value ([3]; pH 9.0, 1 days, higher part of [X] 16.7/41.7/83.3 mM (cell span not shown)) was “Clear” and the “Formation” value ([3]; pH 9.0, 1 days, lower part of [X] 16.7/41.7/83.3 mM (cell span not shown)) was “PPT”. The “Formation” value ([3]; pH 9.0, 2 days, higher part of [X] 16.7/41.7/83.3 mM (cell span not shown)) was “Clear”, the “Formation” value ([3]; pH 9.0, 2 days, lower part of [X] 16.7/41.7/83.3 mM (cell span not shown)) was “PPT” and the “Formation” value [3, 10] was “Precipitate”. The “Appearance of insulin solution (fibrillation)” value [6] was “stayed in clear solutions beyond four weeks” and the “Appearance of Humulin R solution (fibrillation)” value (Humulin R (zinc insulin)) was “remained clear six days before turning cloudy”.

For O=C(O)C(=O)c1ccccc1 [Phenylglyoxylic Acid], the “Results, 65° C., 60 minutes” value (BSA [5]; [11]) was “Clear”, the “Results, 65° C., 60 minutes” value (BSA [5]; [12]) was “Clear” and the “Results, 65° C., 60 minutes” value (BSA [5]; [13]) was “Clear”. For the same compound, the “Formation” value [3, 7] was “Precipitate”, the “Formation” value [3, 8] was “Precipitate (PPT)” and the “Formation” value [3, 9] was “Precipitate”. For the same compound, the “Formation” value [3, 10] was “Precipitate”.

With OC[C@H]1O[C@@](CO)(O[C@H]2O[C@H](CO)[C@@H](O)[C@H](O)[C@H]2O)[C@@H](O)[C@@H]1O [Sucrose, sucrose, reference compound] the “Results, 65° C., 60 minutes” value (BSA [5]; malonate 25 mM pH 6.2, excipient 75 mg/ml) was “Pale Gel”, the “Results, 65° C., 60 minutes” value (BSA [5]; malonate 25 mM pH 6.2, excipient 125 mg/ml) was “Pale Gel” and the “Results, 65° C., 60 minutes” value (BSA [5]; malonate 25 mM pH 6.2, excipient 175 mg/ml) was “Gel”. For the same compound, the “Power to prevent BSA from turning into gel or solid (summary in words)” value (BSA [5]; pH 6.2, 65° C., 60 minutes, all concentrations tested) was “does not have strong power to prevent BSA from turning into gel or solid”.

From patent US8642532B2, “Excipients for protein stabilization” (priority 2007, dated 2014)
